Assay results from ChEMBL document CHEMBL1133347, “Synthesis of NF-kappaB activation inhibitors derived from epoxyquinomicin C” (Bioorg Med Chem Lett, 2000).

What was measured:
Jurkat [1] = assay: Compound was assessed for NF-kB activity using human T cell leukemia Jurkat cells; more toxic; format: functional, cell-based
Jurkat [2] = assay: Compound was assessed for NF-kB activity using human T cell leukemia Jurkat cells; Less toxic; format: functional, cell-based
Mus musculus = species: Mus musculus; assay: Compound was tested for antiarthritic effects on type-II collagen induced arthritis in DBA1/J mice; inhibited; format: functional, organism-based

Row | Compound | Activity (Jurkat [1]) | Activity (Jurkat [2]) | Activity (Mus musculus)
1 | O=C(NC1=CC(O)C2OC2C1=O)c1ccccc1O (stereo not drawn) | Toxic | – | –
2 | O=C(NC1=CC(=O)[C@H]2O[C@H]2[C@H]1O)c1ccccc1O | – | Toxic | Inhibited
